Experimental data from patent publication US20070027143A1, “Novel substituted 2,3-benzodiazepine derivatives” (priority 2003, published 2007).
Counter-ions that a name gives are not always drawn. Marks after values point to notes of the source that are not given here.

tested on: rats; experiment: Inhibition of focal ischemia, middle cerebral artery occlusion (MCAO) test; type: in vivo; details: 2 mg/kg iv. 6x in every 30 min, first treatment 120 min after occlusion
Description: The focal anti-ischemic activity of the compounds of formula (I) or (II) of the present invention was measured by the “middle cerebral artery occlusion” (MCAO) test (Bartus Stroke 11:2265 (1994) and Sydserff et al, Brit. J. Pharmacol. 114:1631 (1995)). […] After a histological process (TTC staining) 24 h later, the infarcted area was determined by a computer assisted scanner program and was compared to the results obtained in a control group treated with the vehicle.

For `CC1=NN=C(c2ccc(N)cc2)c2cc3c(cc2C1)OCO3` [GYKI 52466 HCl, 5-(4-aminophenyl)-8-methyl-9H-1,3-dioxolo[4,5-h][2,3]benzodiazepine, reference compound], the “Decrease of the infracted area in % compared to that of the control” value (shortened to “Decrease of the infracted area in %”) was 39* %.

same assay, conditions: 5 mg/kg iv. 6x in every 30 min, first treatment 30 min after occlusion

In the case of `CC1=NN=C(c2ccc(N)cc2)c2cc3c(cc2C1)OCO3` [GYKI 52466 HCl, 5-(4-aminophenyl)-8-methyl-9H-1,3-dioxolo[4,5-h][2,3]benzodiazepine, reference compound], the “Decrease of the infracted area in %” value is reported as 34* %.

same assay, conditions: 5 mg/kg iv. 6x in every 30 min, first treatment 120 min after occlusion

In the case of `CC1=NN=C(c2ccc(N)cc2)c2cc3c(cc2C1)OCO3` [GYKI 52466 HCl, 5-(4-aminophenyl)-8-methyl-9H-1,3-dioxolo[4,5-h][2,3]benzodiazepine, reference compound], the “Decrease of the infracted area in %” value is reported as 47** %.

tested on: not given; experiment: not given; details: not given

First: CC1Cc2cc3c(cc2C(c2ccc(N)cc2)=NN1c1ncccn1)OCO3 (racemic) [Example 111, (±)-5-(4-Aminophenyl)-8-methyl-7-(2-pyrimidinyl)-8,9-dihydro-7H-1,3-dioxolo[4,5-h][2,3]benzodiazepine]
Second: C[C@@H]1Cc2cc3c(cc2C(c2ccc(N)cc2)=NN1c1nnco1)OCO3 [Example 180, (R)-5-(4-Aminophenyl)-8-methyl-7-(1,3,4-oxadiazol-2-yl)-8,9-dihydro-7H-1,3-dioxolo[4,5-h][2,3]benzodiazepine]
The melting point of the first is higher: 233 to 235 °C for the first, 187 to 190 °C for the second.

First: Cc1nnc(N2N=C(c3ccc(N)cc3)c3cc(Cl)ccc3CC2C)s1 (racemic) [Example 94, (±)-1-(4-Aminophenyl)-8-chloro-4-methyl-3-(5-methyl-1,3,4-thiadiazol-2-yl)-4,5-dihydro-3H-[2,3]benzodiazepine]
Second: Cc1csc(N2N=C(c3ccc(N)cc3)c3cc(Cl)ccc3CC2C)n1 (racemic) [Example 78, (±)-1-(4-Aminophenyl)-8-chloro-4-methyl-3-(4-methyl-thiazol-2-yl)-4,5-dihydro-3H-[2,3]benzodiazepine]
The melting point of the first is lower: 131 to 133 °C for the first, 173 to 175 °C for the second.

First: Cc1csc(N2N=C(c3ccc(N)cc3)c3cc4c(cc3CC2C)OCO4)n1 (racemic) [Example 63, (±)-5-(4-Aminophenyl)-8-methyl-7-(4-methyl-thiazol-2-yl)-8,9-dihydro-7H-1,3-dioxolo-[4,5-h][2,3]benzodiazepine]
Second: Cc1nc(N2N=C(c3ccc(N)cc3)c3cc4c(cc3CC2C)OCO4)cs1 (racemic) [Example 110, (±)-5-(4-Aminophenyl)-8-methyl-7-(2-methyl-thiazol-4-yl)-8,9-dihydro-7H-1,3-dioxolo-[4,5-h][2,3]benzodiazepine]
The melting point of the first is higher: 190 to 191 °C for the first, 132 to 135 °C for the second.

First: CC1=NN=C(N2N=C(c3ccc(N)cc3)c3cc4c(cc3CC2C)OCO4)SC1 (racemic) [Example 99, (±)-5-(4-Aminophenyl)-8-methyl-7-(5-methyl-6H-1,3,4-thiadiazin-2-yl)-8,9-dihydro-7H-1,3-dioxolo-[4,5-h][2,3]benzodiazepine]
Second: Cc1nnc(N2N=C(c3cccc(N)c3)c3cc4c(cc3CC2C)OCO4)s1 (racemic) [Example 97, (±)-5-(3-Aminophenyl)-8-methyl-7-(5-methyl-1,3,4-thiadiazol-2-yl)-8,9-dihydro-7H-1,3-dioxolo-[4,5-h][2,3]benzodiazepine]
The melting point of the first is lower: 154 to 157 °C for the first, 197 to 198 °C for the second.

Compared with `Cc1cc(C2=NN(c3nnc(C4CC4)s3)[C@H](C)Cc3cc4c(cc32)OCO4)ccc1[N+](=O)[O-]` [Example 139, (R)-7-(5-Cyclopropyl-1,3,4-thiadiazol-2-yl)-8-methyl-5-(3-methyl-4-nitrophenyl)-8,9-dihydro-7H-1,3-dioxolo[4,5-h][2,3]benzodiazepine], `CCCCCCc1nnc(N2N=C(c3ccc([N+](=O)[O-])c(C)c3)c3cc4c(cc3C[C@H]2C)OCO4)s1` [Example 147, (R)-7-(5-Hexyl-1,3,4-thiadiazol-2-yl)-8-methyl-5-(3-methyl-4-nitrophenyl)-8,9-dihydro-7H-1,3-dioxolo[4,5-h][2,3]benzodiazepine] is higher in melting point: 126 to 130 °C for the first, 217 to 224 °C for the second.

First: CC1Cc2cc3c(cc2C(c2ccc(N)cc2)=NN1c1nnc(-c2ccccc2)s1)OCO3 (racemic) (hydrate or solvate) [Example 91, (±)-5-(4-Aminophenyl)-7-(5-phenyl-1,3,4-thiadiazol-2-yl)-8-methyl-8,9-dihydro-7H-1,3-dioxolo-[4,5-h][2,3]benzodiazepine]
Second: Cc1cc(C2=NN(c3nnc(CO)s3)[C@H](C)Cc3cc4c(cc32)OCO4)ccc1N [Example 171, (R)-5-(4-Amino-3-methylphenyl)-7-(5-hydroxymethyl-1,3,4-thiadiazol-2-yl)-8-methyl-8,9-dihydro-7H-1,3-dioxolo[4,5-h][2,3]benzodiazepine]
The melting point of the first is higher: 228 to 230 °C for the first, 184 to 186 °C for the second.

First: CCCCCCc1nnc(N2N=C(c3ccc(N)c(C)c3)c3cc4c(cc3C[C@H]2C)OCO4)s1 [Example 178, (R)-5-(4-Amino-3-methylphenyl)-7-(5-hexyl-1,3,4-thiadiazol-2-yl)-8-methyl-8,9-dihydro-7H-1,3-dioxolo[4,5-h][2,3]benzodiazepine]
Second: Cc1cc(C2=NN(c3nnc(CC#N)s3)[C@H](C)Cc3cc4c(cc32)OCO4)ccc1N [Example 173, (R)-5-(4-Amino-3-methylphenyl)-7-(5-cyanomethyl-1,3,4-thiadiazol-2-yl)-8-methyl-8,9-dihydro-7H-1,3-dioxolo[4,5-h][2,3]benzodiazepine]
The melting point of the first is higher: 180 to 181 °C for the first, 135 to 140 °C for the second.

First: COCc1nnc(N2N=C(c3ccc(N)c(Cl)c3)c3cc4c(cc3C[C@H]2C)OCO4)s1 [Example 183, (R)-5-(4-Amino-3-chlorophenyl)-8-methyl-7-(5-methoxymethyl-1,3,4-thiadiazol-2-yl)-8,9-dihydro-7H-1,3-dioxolo[4,5-h][2,3]benzodiazepine]
Second: Cc1cc(C2=NN(c3nccs3)[C@H](C)Cc3cc4c(cc32)OCO4)ccc1N [Example 164, (R)-5-(4-Amino-3-methylphenyl)-8-methyl-7-(thiazol-2-yl)-8,9-dihydro-7H-1,3-dioxolo-[4,5-h][2,3]benzodiazepine]
The melting point of the first is lower: 105 to 109 °C for the first, 124 to 127 °C for the second.

First: CC1Cc2cc3c(cc2C(c2ccc([N+](=O)[O-])cc2)=NN1c1nnc(CCl)s1)OCO3 (racemic) [Example 34, (±)-7-(5-Chloromethyl-1,3,4-thiadiazol-2-yl)-8-methyl-5-(4-nitrophenyl)-8,9-dihydro-7H-1,3-dioxolo[4,5-h][2,3]benzodiazepine]
Second: CCc1nnc(N2N=C(c3ccc([N+](=O)[O-])cc3)c3cc4c(cc3CC2C)OCO4)s1 (racemic) [Example 30, (±)-7-(5-Ethyl-1,3,4-thiadiazol-2-yl)-8-methyl-5-(4-nitrophenyl) 8,9-dihydro-7H-1,3-dioxolo[4,5-h][2,3]benzodiazepine]
The melting point of the first is higher: 210 to 211 °C for the first, 163 to 164 °C for the second.

Compared with `CC(=O)Nc1ccc(C2=NN(c3nnc(C)s3)C(C)Cc3cc4c(cc32)OCO4)cc1C` (racemic) [Example 131, (±)-5-(4-Acetylamino-3-methylphenyl)-8-methyl-7-(5-methyl-1,3,4-thiadiazol-2-yl)-8,9-dihydro-7H-1,3-dioxolo[4,5-h][2,3]benzodiazepine], `Cc1nnc(N2N=C(c3cc(C)c(N)c(C)c3)c3cc4c(cc3C[C@H]2C)OCO4)s1` [Example 190, (R)-5-(4-Amino-3,5-dimethylphenyl)-8-methyl-7-(5-methyl-1,3,4-thiadiazol-2-yl)-8,9-dihydro-7H-1,3-dioxolo[4,5-h][2,3]benzodiazepine] is higher in melting point: 258 to 262 °C for the first, 280 to 281 °C for the second.

First: COc1ccc2c(c1)C(c1ccc(N)cc1)=NN(c1nccs1)C(C)C2 (racemic) [Example 76, (±)-1-(4-Aminophenyl)-4-methyl-8-methoxy-3-(2-thiazolyl)-4,5-dihydro-3H-[2,3]benzodiazepine]
Second: CC(=O)Nc1ccc(C2=NN(c3nccs3)[C@H](C)Cc3cc4c(cc32)OCO4)cc1 [Example 123, (R)-5-(4-Acetylaminophenyl)-8-methyl-7-(2-thiazolyl)-8,9-dihydro-7H-1,3-dioxolo[4,5-h][2,3]benzodiazepine]
The melting point of the first is lower: 105 to 107 °C for the first, 126 °C for the second.

Compound `CC1Cc2cc3c(cc2C(c2ccc(N)cc2)=NN1c1nnn[nH]1)OCO3` (racemic) [Example 107, (±)-5-(4-Aminophenyl)-8-methyl-7-(5-tetrazolyl)-8,9-dihydro-7H-1,3-dioxolo[4,5-h][2,3]benzodiazepine] has a melting point of over 360 °C.
